The results in this text go back to PubChem BioAssay (NCI).

Among the test systems are BT-549 breast; CAKI-1 renal; HL-60(TB) leukemia; HOP-62 NSCLC; HOP-92 NSCLC; IGROV1 ovarian; KM12 colon; MALME-3M melanoma; MOLT-4 leukemia; NCI-H226 lung; OVCAR-8 ovarian; RPMI-8226 leukemia; SF-268 CNS; SK-MEL-28 melanoma; SK-MEL-5 melanoma; SK-OV-3 ovarian; SNB-19 CNS; SW-620 colon; U251 CNS.
What all share (experiment): inhibition of tumour cell growth, NCI panel, 48 h

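These data come from cells grown in 96-well plates and exposed to compound for 48 hours at five concentrations. TGI: total growth inhibition.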

Regarding `CCOC(=O)C(CCN1CCC2(CC1)C(=O)N(C)CN2c1ccccc1)C(=O)OCC`, the TGI in the experiment on BT-549 breast, in the experiment on CAKI-1 renal, with HL-60(TB) leukemia, in the experiment with HOP-62 NSCLC, in the experiment with HOP-92 NSCLC and with IGROV1 ovarian was above 100 µM in each case. Also, the TGI with KM12 colon, in the experiment on MALME-3M melanoma, with MOLT-4 leukemia, in the experiment on NCI-H226 lung, in the experiment with OVCAR-8 ovarian and in the experiment on RPMI-8226 leukemia was above 100 µM in each case. Further, the TGI in the experiment on SF-268 CNS, in the experiment on SK-MEL-28 melanoma, in the experiment with SK-MEL-5 melanoma, in the experiment on SK-OV-3 ovarian, with SNB-19 CNS and in the experiment with SW-620 colon was above 100 µM throughout. For the same compound, the TGI in the experiment on U251 CNS is above 100 µM.

Consider `CCOC(=O)/C=C(\C(=O)OCC)n1ccc(=O)n(Cc2cn(CCCCOC(C)=O)nn2)c1=O`, for which the TGI with BT-549 breast was 24.7 µM; with CAKI-1 renal, 8.57 µM; in the experiment with HL-60(TB) leukemia, 1.25 µM; in the experiment with HOP-62 NSCLC, 41.2 µM; with HOP-92 NSCLC, 5.15 µM; in the experiment with IGROV1 ovarian it was 43 µM. Besides, the TGI in the experiment on KM12 colon is 31.5 µM; in the experiment on MALME-3M melanoma, 4.83 µM; with MOLT-4 leukemia, 9.12 µM; with NCI-H226 lung, 32.7 µM; in the experiment with OVCAR-8 ovarian it was 20.1 µM; with RPMI-8226 leukemia, above 36 µM. Further, the TGI was 36.9 µM in the experiment with SF-268 CNS; 21.2 µM in the experiment on SK-MEL-28 melanoma; above 54.2 µM in the experiment with SK-MEL-5 melanoma; above 65.5 µM in the experiment on SK-OV-3 ovarian; above 55.6 µM with SNB-19 CNS; 8.38 µM with SW-620 colon. Also, in the experiment with U251 CNS, the TGI was 30.9 µM.

With `CC1OC(OC2C(OC(=O)[C@]34CCC(C)(C)C[C@H]3C3=CC[C@@H]5[C@@]6(C)CC[C@H](OC7OC(CO)C(O)C(O)C7OC7OC(CO)C(O)C(O)C7O)C(C)(C)[C@@H]6CC[C@@]5(C)[C@]3(C)CC4)OCC(O)C2O)C(O)C(OC2OCC(O)C(O)C2O)C1OC1OCC(O)C(OC2OCC(O)C(O)C2O)C1O` (stereo partly drawn), the TGI is 31.4 µM with BT-549 breast; 21.8 µM in the experiment with CAKI-1 renal; 10.8 µM in the experiment on HL-60(TB) leukemia; 29.6 µM in the experiment on HOP-62 NSCLC; 20.2 µM in the experiment on HOP-92 NSCLC; above 67.4 µM in the experiment on IGROV1 ovarian. Besides, the TGI is 21.8 µM with KM12 colon; 18.3 µM with MALME-3M melanoma; 48.6 µM in the experiment with MOLT-4 leukemia; 24.7 µM in the experiment on NCI-H226 lung; above 83.2 µM in the experiment with OVCAR-8 ovarian; 24 µM with RPMI-8226 leukemia. Also, the TGI in the experiment on SF-268 CNS was 33.1 µM; in the experiment on SK-MEL-28 melanoma, 4.85 µM; with SK-MEL-5 melanoma it was 23.3 µM; with SK-OV-3 ovarian, above 69.5 µM; in the experiment with SNB-19 CNS it was 49.5 µM; in the experiment with SW-620 colon it was above 55.6 µM. For the same compound, the TGI in the experiment on U251 CNS was above 56.8 µM.

Turning to `CCOC(=O)c1nc2cc(F)c(N3CCOCC3)cc2[nH]c1=O`, the TGI in the experiment on BT-549 breast, in the experiment on CAKI-1 renal, in the experiment with HL-60(TB) leukemia, in the experiment on HOP-62 NSCLC, in the experiment with HOP-92 NSCLC and in the experiment on IGROV1 ovarian was above 100 µM throughout. The TGI in the experiment on KM12 colon, in the experiment with MALME-3M melanoma, in the experiment with MOLT-4 leukemia, in the experiment with NCI-H226 lung, in the experiment on OVCAR-8 ovarian and in the experiment with RPMI-8226 leukemia was above 100 µM throughout. Besides, the TGI in the experiment with SF-268 CNS, in the experiment with SK-MEL-28 melanoma, with SK-MEL-5 melanoma, with SK-OV-3 ovarian, with SNB-19 CNS and with SW-620 colon was above 100 µM throughout. In addition, the TGI with U251 CNS was above 100 µM.

With `O=c1nc(N2CCNCC2)oc2cc(Cl)oc(=O)c12`, the TGI in the experiment with BT-549 breast was 6.26 µM; with CAKI-1 renal, 9.49 µM; in the experiment with HL-60(TB) leukemia it was 8.47 µM; in the experiment on HOP-62 NSCLC it was 14 µM; with HOP-92 NSCLC it was 15.6 µM; with IGROV1 ovarian, 16.6 µM. The TGI worked out at 15.5 µM with KM12 colon; 14.5 µM with MALME-3M melanoma; 7.37 µM with MOLT-4 leukemia; 37.9 µM with NCI-H226 lung; 5.67 µM with OVCAR-8 ovarian; 5.62 µM in the experiment on RPMI-8226 leukemia. Moreover, the TGI in the experiment with SF-268 CNS was found to be 15.9 µM; in the experiment on SK-MEL-28 melanoma, 15.8 µM; with SK-MEL-5 melanoma, 19 µM; in the experiment on SK-OV-3 ovarian, 33.2 µM; in the experiment on SNB-19 CNS, 36.7 µM; in the experiment with SW-620 colon it was 21.1 µM. The compound also gave a TGI in the experiment with U251 CNS of 16 µM.

For the compound `CC(Oc1ccc(Cl)cc1Cl)C(=O)NN1C(=O)CSC1c1ccccc1` (stereo not drawn), the TGI in the experiment on BT-549 breast is 46.5 µM; in the experiment with CAKI-1 renal it was 40 µM; in the experiment on HL-60(TB) leukemia it was 77.9 µM; with HOP-62 NSCLC, above 100 µM; in the experiment on HOP-92 NSCLC, 83.8 µM; with IGROV1 ovarian, above 100 µM. In addition, the TGI in the experiment with KM12 colon was above 100 µM; in the experiment with MALME-3M melanoma it was above 100 µM; in the experiment on MOLT-4 leukemia, above 100 µM; in the experiment with NCI-H226 lung it was 64.1 µM; with OVCAR-8 ovarian, above 100 µM; with RPMI-8226 leukemia, above 100 µM. Moreover, the TGI in the experiment on SF-268 CNS, in the experiment on SK-MEL-28 melanoma, with SK-MEL-5 melanoma, with SK-OV-3 ovarian, with SNB-19 CNS and with SW-620 colon was above 100 µM in each case. This compound registered a TGI with U251 CNS above 100 µM.

Regarding `CC1=C(/C=C/C(C)=C/C=C/C(C)=C/C(=O)OC2CC(n3cc(F)c(=O)[nH]c3=O)OC2CO)C(C)(C)CCC1` (stereo not drawn), the TGI came out at 22.3 µM in the experiment with BT-549 breast; 16.9 µM with CAKI-1 renal; 7.37 µM in the experiment on HL-60(TB) leukemia; 13.7 µM with HOP-62 NSCLC; 36.7 µM in the experiment on HOP-92 NSCLC; 24.6 µM in the experiment with IGROV1 ovarian. Besides, the TGI turned out to be 31.4 µM in the experiment on KM12 colon; 31.9 µM in the experiment on MALME-3M melanoma; 20.2 µM in the experiment with MOLT-4 leukemia; 52.7 µM in the experiment with NCI-H226 lung; 23.6 µM in the experiment with OVCAR-8 ovarian; 15.8 µM in the experiment on RPMI-8226 leukemia. For the same compound, the TGI is 19.5 µM in the experiment with SF-268 CNS; 24.6 µM in the experiment with SK-MEL-28 melanoma; 13.9 µM with SK-MEL-5 melanoma; 19.7 µM with SK-OV-3 ovarian; 23.6 µM with SNB-19 CNS; 26.9 µM with SW-620 colon. Moreover, in the experiment on U251 CNS, the TGI is 20 µM.
